This is an account of results in patent US7816406B2, “Quinolone analogs” (Cylene Pharmaceuticals, Inc., priority 2004, dated 2010).

Read-outs that look alike come from different tables or passages of the source. Where only a bound is given, the exact number is not on record here.

Data set [1] deals with c-Myc template DNA. As to the kind of experiment: Quadruplex binding assay (STOP / Taq polymerase arrest, capillary electrophoresis). The class given is biochemical. The settings on record: concentration at which 50% of the DNA was arrested (arrested:full-length 1:1). How it is done:
Generally, a 5′-fluorescent-labeled (FAM) primer (P45, 15 nM) was mixed with template DNA (15 nM) in a Tris-HCL buffer (15 mM Tris, pH 7.5) containing 10 mM MgCl2, 0.1 mM EDTA and 0.1 mM mixed deoxynucleotide triphosphates (dNTP's). In one example, the FAM-P45 primer (5′ -6FAM-[…] CAATT-3′) (SEQ ID NO. 17) and the c-Myc template DNA (5′-[…] […] […]-3′) (SEQ ID NO. 18) were synthesized and HPLC purified by Applied Biosystems. The mixture was denatured at 95° C. for 5 minutes and, after cooling down to room temperature, was incubated at 37° C. for 15 minutes.
After cooling down to room temperature, 1 mM KCl2 and the test compound (various concentrations) were added and the mixture incubated for 15 minutes at room temperature. The primer extension was performed by adding 10 mM KCl and Taq DNA Polymerase (2.5 U/reaction, Promega) and incubating at 70° C. for 30 minutes. The reaction was stopped by adding 1 μl of the reaction mixture to 10 μl Hi-Di Formamide mixed and 0.25 μl LIZ120 size standard. Hi-Di Formamide and LIZ120 size standard were purchased from Applied Biosystems. The partially extended quadruplex arrest product was between 61 or 62 bases long and the full-length extended product was 99 bases long. The products were separated and analyzed using capillary electrophoresis. Capillary electrophoresis was performed using an ABI PRISM 3100-Avant Genetic Analyzer. The assay was performed using compounds described above and results are shown in Table 1. μM concentrations reported in Table 1 are concentrations at which 50% of the DNA was arrested in the assay (ie., the ratio of shorter partially extended DNA (arrested DNA) to full-length extended DNA is 1:1).
Stop Assays. Stop assays are high throughput, first-pass screens for detecting drugs that bind to and stabilize the target G-quadruplex. Generally, DNA template oligonucleotide is created, which contains the nucleotide sequence of the “target” quadruplex against which drug screening is desired. A fluorescently labeled primer DNA is then annealed to the 3′ end of the template DNA. A DNA polymerase such as Taq polymerase is then introduced to synthesize a complementary strand of DNA by extending from the fluorescently labeled primer. When the progress of the Taq polymerase is unhindered, it synthesizes a full-length copy of the template. […] If, however, the test drug selectively binds to and stabilizes the quadruplex, the progress of polymerase arrests only at the quadruplex, and a characteristic “Stop Product” is synthesized.
Compounds are initially screened at a single concentration, and “hits” are re-assayed over a range of doses to determine an IC50 value (i.e., the concentration of drug required to produce an arrest product/full-length product ratio of 1:1). These products are visualized by capillary electrophoresis.

In data set [2] the test system is HCT-116. As to the kind of experiment: MTS cell proliferation assay, HCT-116. The class given is cell-based. How it is done: MTS assays. Antiproliferative effects of anticancer drugs are tested by the CellTiter 96 AQueous assay (Promega, WI), which is a colorimetric assay for determining the number of viable cells. (See, e.g., Wang, L., et al., Methods Cell Sci (1996) 18:249-255). Generally, cells (2,000 to 5,000 cells/well) are seeded on 96 well flat bottom plates (Corning, NY) in 100 μl of culture medium without any anticancer drug on day 0, and the culture medium is exchanged for that contained anticancer drugs at various concentrations on day 1. After incubation for 3 days under normal growth conditions (on day 4), the monolayers are washed once in PBS, and the medium is switched to 100 μl of PBS in each of the 96 well plate. After mixing MTS and PMS at the ratio of 20:1, 20 μl of MTS/PMS solution is added to each of the 96 well plate and incubated for 4 hours in a humidified atmosphere of 5% CO2 at 37° C. The absorbance is read at 490 nm using FLUOstar Galaxy 96 well plate reader (BMG Labtechnologies, Germany).

For data set [3], the system named is HCT116 cells. As to the kind of experiment: HCT-116 colorectal cancer xenograft model, intravenous dosing. The class given is in vivo. Conditions: IV bolus, nu/nu mice. How it is done:
6 wk old female nu/nu mice were purchased from Taconic Farms, Germantown N.Y. They were injected with 5×10^6 HCT116 cells SQ in right flank. When tumors reached sufficient size for study, they were randomized into groups. • Vehicle: 242.9 mm^3 • Test compound: 251.0 mm^3
Animals dosed by bolus injection—IV through lateral tail vein for five consecutive days. Caliper measurements were taken on Day 1, 4, 6.
6 wk old female nu/nu mice were purchased from Simonsen Labs, Gilroy, Calif. They were injected with 5×10^6 HCT116 cells SQ in right flank. When tumors reached sufficient size for study, they were randomized into groups. • Vehicle: 101.9 mm^3 • Test compound: 152.8 mm^3
Animals dosed by bolus injection—IV through lateral tail vein for fourteen consecutive days. Caliper measurements were taken on Day 1, 3, 5, 7, 10, 12, 14, and 18.
6 wk old female nu/nu mice were purchased from Simonsen Labs, Gilroy, Calif. They were injected with 5×10^6 HCT116 cells SQ in right flank. When tumors reached sufficient size for study, they were randomized into groups. • Vehicle: 114.6 mm^3 • Test compound: 106.1 mm^3 • Test compound: 84.1 mm^3
Animals dosed by bolus injection—IV through lateral tail vein for fourteen consecutive days. Caliper measurements were taken on Day 1, 4, 6, 8, 12, and 15.
6 wk old female nu/nu mice were purchased from Taconic Farms, Germantown N.Y. They were injected with 5×10^6 HCT116 cells SQ in right flank. When tumors reached sufficient size for study, they were randomized into groups. • Vehicle: 242.9 mm^3 • Test compound: 252.1 mm^3
Animals dosed by bolus injection—IV through lateral tail vein for five consecutive days. Caliper measurements were taken on Day 1, 4, and 6.
6 wk old female nu/nu mice were purchased from Taconic Farms, Germantown N.Y. They were injected with 5×10^6 HCT116 cells SQ in right flank. When tumors reached sufficient size for study, they were randomized into groups. • Vehicle: 242.9 mm^3 • Test compound: 236.1 mm^3
6 wk old female nu/nu mice were purchased from Taconic Farms, Germantown N.Y. They were injected with 5×10^6 HCT116 cells SQ in right flank. When tumors reached sufficient size for study, they were randomized into groups. • Vehicle: 242.9 mm^3 • Test compound: 254.7 mm^3
6 wk old female nu/nu mice were purchased from Taconic Farms, Germantown N.Y. They were injected with 5×10^6 HCT116 cells SQ in right flank. When tumors reached sufficient size for study, they were randomized into groups.
Animals dosed by bolus injection—IV through lateral tail vein for nine consecutive days. Caliper measurements were taken on Day 1, 3, 5, 7, and 9.
Animals dosed by bolus injection—IV through lateral tail vein for seven consecutive days. Caliper measurements were taken on Day 1, 3, 5, and 7.

[4] abbreviates: Homo sapiens, HCT-116, HCT-116, Table 1A, read-out: HCT-116 MTs.
Where [5] appears, read: 25 mg/kg, five consecutive days.
[6] abbreviates: 12.5 mg/kg, fourteen consecutive days.
Where [7] appears, read: different dose levels, fourteen consecutive days.
[8] abbreviates: Homo sapiens, HCT-116, M CELL HCT-116, Table 1C, read-out: M DATA.
[9] abbreviates: 25 and 12.5 mg/kg, seven consecutive days.

With `CN1CCCC1CCNC(=O)c1c(=O)c2cc(SCCc3cnccn3)ccc2n2c1sc1ccccc12` (stereo not shown), the IC50 turned out to be 10 µM in data set [1] and 6.1 µM in data set [2] (setting [4]). For `COc1ccc2c(c1)sc1c(C(=O)NCCC3CCCN3C)c(=O)c3cc(F)c(SCCc4cnccn4)cc3n12` (stereo not shown), in that order: 9.3 µM and 5.7 µM. For `CN1CCCC1CCNC(=O)c1c(=O)c2cc(F)c(SCCc3cnccn3)cc2n2c1sc1cc(Cl)ccc12` (stereo not shown), in that order: 1.7 µM and 3.57 µM.

Turning to `CC(C)N1CCN(c2cc3c(cc2F)c(=O)c(C(=O)NCCN2CCCC2)c2sc4ccccc4n23)CC1`, the IC50 amounted to 9 µM in data set [1] and 0.3 µM in data set [2] (setting [4]). Regarding `CC(C)N1CCN(c2cc3c(=O)c(C(=O)NCCC4CCCN4C)c4sc5ccccc5n4c3cc2Cl)CC1` (stereo not shown), the IC50 in data set [1] was more than 15 µM. In the case of `Nc1ccccc1Sc1c(F)cc2c(=O)c(C(=O)NCCN3CCCC3)c3sc4ccccc4n3c2c1F`, the IC50 is 15 µM in data set [1] and 2.4 µM in data set [2] (setting [4]). With `O=C(NCCN1CCCC1)c1c(=O)c2cc(F)c(N3CCC(c4cnccn4)C3)c(F)c2n2c1sc1ccccc12` (stereo not shown), the results for the IC50 in data set [1] and in data set [2] (setting [4]) were 11.6 µM and 3.5 µM, respectively.

As to `CN1CCCC1CCNC(=O)c1c(=O)c2cc(F)c(N3CCC(c4cnccn4)C3)cc2n2c1sc1ccccc12` (stereo not shown), the IC50 stood at 1.3 µM in data set [1] and 3.4 µM in data set [2] (setting [4]). For the compound `CN1CCCC1CCNC(=O)c1c(=O)c2cc(F)c(N3CCC(c4cnccn4)C3)cc2n2c3ccccc3n(C)c12` (stereo not shown), the figures for the IC50 in data set [1] and in data set [2] (setting [4]) were 10.5 µM and 0.7 µM, respectively.

As to `Cn1c2ccccc2n2c3cc(N4CCC(c5cnccn5)C4)c(F)cc3c(=O)c(C(=O)NCCN3CCCC3)c12` (stereo not shown), the IC50 was 8.2 µM in data set [1] and 0.1 µM in data set [2] (setting [4]). For `CN1CCCC1CCNC(=O)c1c(=O)c2cc(F)c(SCCc3cnccn3)cc2n2c3ccccc3n(C)c12` (stereo not shown), in that order: 15 µM and 2.3 µM. The like results for `Cn1c2ccccc2n2c3cc(SCCc4cnccn4)c(F)cc3c(=O)c(C(=O)NCCN3CCCC3)c12` were, in that order, 15 µM and 0.3 µM. For `Cn1c2ccccc2n2c3cc(F)c(F)cc3c(=O)c(C(=O)NCCN3CCCC3)c12`, in that order: 15 µM and 0.3 µM. Consider `CC(C)N1CCN(c2cc3c(cc2F)c(=O)c(C(=O)NCCC2CCCN2C)c2n(C)c4ccccc4n32)CC1` (stereo not shown), for which the IC50 in data set [1] came out at 15 µM; in data set [2] (setting [4]) it was 0.3 µM. As to `CC(C)N1CCN(c2cc3c(cc2F)c(=O)c(C(=O)NCCN2CCCC2)c2n(C)c4ccccc4n32)CC1`, the IC50 in data set [1] was more than 15 µM. `CC(C)N1CCN(c2nc3c(cc2F)c(=O)c(C(=O)NCCC2CCCN2C)c2sc4ccc(Cl)cc4n23)CC1` (stereo not shown): in data set [3] (setting [5]), the “activity in HCT116 xenograft” value was “activity” and the adverse effects entry is reported as “no adverse effects observed”.

Consider `CC(=O)N1CCN(c2ccc3c(=O)c(C(=O)NCCN4CCCC4)c4n(C)c5ccccc5n4c3n2)CC1`, for which, in data set [3] (setting [6]), the “activity in HCT116 xenograft” value is listed as “activity” and the adverse effects entry was “no adverse effects observed”. In data set [3] (setting [7]), the “activity in HCT116 xenograft” value was “dose dependent activity” and the adverse effects result is “no adverse effects observed”.

For the compound `NC1CCN(c2nc3c(cc2F)c(=O)c(C(=O)NCCN2CCCC2)c2sc4ccccc4n23)C1` (stereo not shown), in data set [3] (setting [5]), the “activity in HCT116 xenograft” value is on record as “activity” and the adverse effects result is given as “no adverse effects observed”. Take `CN1CCCC1CCNC(=O)c1c(=O)c2cc(F)c(SCCc3cnccn3)cc2n2c1sc1ccccc12` (stereo not shown) [drawing 14]: the IC50 in data set [1] worked out at 7.2 µM; in data set [2] (setting [4]), 1.1 µM. Regarding `O=C(NCCN1CCCC1)c1c(=O)c2cc(F)c(SCCc3cnccn3)cc2n2c1sc1ccccc12` [drawing 15], the IC50 is 5.8 µM in data set [1] and 0.57 µM in data set [2] (setting [4]). Regarding `O=C(NCCN1CCCC1)c1c(=O)c2cnc(N3CCCC3)nc2n2c1sc1ccc(Cl)cc12` [drawing 212], the IC50 in data set [2] (M CELL HCT-116, Table 1C, read-out: M DATA) turned out to be 0.21 µM. For `O=C(NCCN1CCCC1)c1c(=O)c2ccc(NCCN3CCOCC3)nc2n2c1sc1ccccc12` [drawing 307], the IC50 in data set [2] (setting [8]) was found to be 0.02 µM.

Regarding `CN(C)CCN(C)c1ccc2c(=O)c(C(=O)NCCC3CCCN3C)c3sc4ccccc4n3c2n1` (stereo not shown) [drawing 385], the IC50 in data set [2] (setting [8]) turned out to be 0.02 µM. Take `CC(=O)N1CCN(c2ncc3c(=O)c(C(=O)NCCN4CCCC4)c4sc5ccccc5n4c3n2)CC1` [drawing 653]: in data set [3] (setting [5]), the “activity in HCT116 xenograft” value is recorded as “activity” and the adverse effects result was “no adverse effects observed”. The like results for `O=C(NCCN1CCCC1)c1c(=O)c2cnc(N3CCCC3)nc2n2c1sc1ccccc12` [drawing 654] were, in that order, “activity” and “no adverse effects observed”.

As to `CC(=O)N1CCN(c2nc3c(cc2F)c(=O)c(C(=O)NCCN2CCCC2)c2n(C)c4ccccc4n32)CC1` [drawing 655], the adverse effects result in data set [3] (25 and 12.5 mg/kg, nine consecutive days) is reported as “no adverse effects observed”. The “activity in HCT116 xenograft” value in data set [3] (high dose (25 mg/kg), nine consecutive days) was “limited activity”; in data set [3] (mid dose (12.5 mg/kg), nine consecutive days), “no activity”. With `CN1CCCC1CCNC(=O)c1c(=O)c2ccc(N3CCC(c4cnccn4)C3)nc2n2c1sc1ccc(Cl)cc12` (stereo not shown) [drawing 656], in data set [3] (setting [9]), the “activity in HCT116 xenograft” value was “excellent activity with minimal dose dependency” and the adverse effects entry is “No adverse effects were observed”.
